Laboratory results from patent US7795254B2, “Benzomorpholine derivatives and methods of use” (Amgen Inc., priority 2007, dated 2010).
Read-outs that look alike come from different tables or passages of the source.

What was measured:
cytochrome P450 3A4 = cytochrome P450 3A4 (Homo sapiens, UniProt P08684); test: Incubation with recombinant human cytochrome P450 3A4; type: in vitro ADME; conditions: fortified with NADPH
Text: The following compounds identified in Table 16 below were the significant metabolites formed in all species.

[1] = system: VEGF-induced rat corneal angiogenesis; test: VEGF-induced rat corneal angiogenesis assay; type: in vivo; conditions: for Average # of Vessels: 7 days
Procedure: (§1) Tables 2 through 6 below describe the results obtained in the rat corneal in vivo model of angiogenesis for (1) reference compound (free base) 1, (2) Compound A (free base), and (3) the hydrochloride salt of Compound A. A VEGF-induced rat corneal angiogenesis assay was performed using the following procedure: • In Life Aspects: Female CD rats weighing approximately 250 grams were randomized into one of six treatment groups. On the day of surgery the rats were temporarily anesthetized using isoflurane. A vertical incision was made on the midline of the cornea and a pocket was created to separate the connective tissue layers of the stroma. The distance between the apex of the pocket and the limbus was approximately 1.8 mm. A presoaked nylon filter disk was inserted to the apex of the pocket (in the case of the control treatment group, the disks were soaked in a buffer containing bovine serum albumin; in the remaining treatment groups, the disks were soaked in buffer containing bovine serum albumin plus human VEGF to induce angiogenesis). The different treatment groups were then dosed daily with either vehicle (Ora Plus™, a commercially available vehicle) or a designated amount of test compound formulated in vehicle. • Study Termination and Analysis: After seven days, the rats were euthanized and the implanted corneas photographed using a Nikon SV-3 Ophthalmic Slit Lamp. Numerical data were generated from the digital images using the Metamorph image analysis system (Universal Imaging). Three endpoints were analyzed on each corneal image: (1) disk placement distance from the limbus, (2) number of vessels intersecting a perpendicular line at the midpoint of the disk placement distance, and (3) blood vessel area, as determined by thresholding and automated pixel counting. Only the number of blood vessels is shown in the tables as this endpoint correlated well with the blood vessel area. • Statistical Analysis: Results were analyzed with the StatView statistical program using one-way ANOVA, followed by Fisher's least significant difference test. Data are presented as mean±SE and P<0.05 was considered significant. AUC and ED50 values were calculated using methods well known in the art.

Rat Liver Microsome = test: Rat liver microsome clearance; type: in vitro ADME; conditions: rat liver microsomes
Text: (§2) Table 7 provides additional information about the pharmacokinetic profiles of reference compound 1 and Compound A. The data contained in this table was obtained using methods well known in the art.

[2] = Rat pharmacokinetic profile; conditions: in vivo
Text: as §2

HUVEC = test: VEGF induced proliferation, HUVEC cell-based assay; conditions: Homo sapiens
Human Liver Microsome = test: Human liver microsome clearance; type: in vitro ADME; conditions: human liver microsomes
Text: as §2

[3] = Exposure (AUC) in the rat corneal angiogenesis study; type: in vivo; conditions: for AUC: female, CD, rat, in vivo, oral, Table 3, free base
Procedure: as §1

liver microsomes = test: In vitro metabolite profiling in liver microsomes; type: in vitro ADME; conditions: 10 μM, liver microsomes 1 mg/mL (human, mouse, rat, monkey, rabbit, dog), NADPH, 37° C., 1 hr
Procedure: Incubation mixtures were prepared including [14C]-Compound A (10 μM, 0.5 μCi), liver microsomes at 1 mg/mL (human, mouse, rat, monkey, rabbit, dog), MgCl2 (3 mM), and potassium phosphate buffer (100 mM). The reaction was started by adding NADPH (1 mM) and incubations were carried out in a shaking water bath maintained at 37° C. for 1 hr. The reactions were stopped by adding 1 volume of ACN:MeOH 1:1 mixture; vortex mixed; centrifuged at 16000×g. The supernatants were analyzed on a reverse phase HPLC (Agilent 1100, Agilent systems, DE) in line with a radiomatic (β-ram, IN/US systems, FL) detector and an LTQ ion-trap mass spectrometer (ThermoFisher, San Jose, Calif.). HPLC separations were carried out on a phenyl-hexyl luna (150×4.6 mm, 5 μm, Phenomenex Inc) column maintained at 40° C. at a flow rate of 1 mL/min. A binary mobile phase consisting of 10 mM ammonium formate in H2O (solvent A) and 0.1% formic in MeOH (solvent B) was employed under the following gradient conditions: 0 to 2 min, 95% A; 2 to 10 min, 95 to 75% A; 10 to 40 min, 75 to 60% A; 40 to 60 min, 60 to 55% A; 60 to 77 min, 55 to 25% A; 77 to 78 min, 25 to 5% A; 78 to 83 min, 5% A; 83 to 84 min, 5 to 95% A; 84 to 90 min, 95% A. The flow post-column was split such that 80% went to radiomatic detector and the remaining 20% to MS. […]

Sequence of cytochrome P450 3A4 (P08684 whole entry): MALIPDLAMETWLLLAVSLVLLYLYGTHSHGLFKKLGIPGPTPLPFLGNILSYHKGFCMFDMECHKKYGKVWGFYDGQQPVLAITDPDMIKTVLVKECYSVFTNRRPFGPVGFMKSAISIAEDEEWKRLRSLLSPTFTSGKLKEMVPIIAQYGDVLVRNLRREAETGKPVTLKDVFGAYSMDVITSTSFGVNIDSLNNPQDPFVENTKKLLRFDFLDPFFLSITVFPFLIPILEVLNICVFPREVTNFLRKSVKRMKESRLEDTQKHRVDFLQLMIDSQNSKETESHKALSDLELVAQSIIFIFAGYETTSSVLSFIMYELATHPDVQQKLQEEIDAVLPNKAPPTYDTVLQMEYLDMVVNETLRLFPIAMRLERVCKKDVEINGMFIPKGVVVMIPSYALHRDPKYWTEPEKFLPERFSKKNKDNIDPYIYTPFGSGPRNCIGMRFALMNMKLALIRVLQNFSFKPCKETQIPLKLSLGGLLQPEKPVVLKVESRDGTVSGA

- metabolites formed with recombinant human cytochrome P450 3A4 (cytochrome P450 3A4): These same metabolites were also formed
- Rat Liver Microsome (Rat Liver Microsome): 45 µL/min/mg
- clearance ([2]; intravenous): 6.67 mL/min/kg
- Vd ([2]; intravenous, read-out: Rat Volume of Distribution): 1 L/kg
- half-life ([2]; iv, I.V., read-out: Rat I.V. T1/2 (converted)): 2.1 h
- bioavailability ([2]; po, 2 mg/kg, P.O., 2 mpk, read-out: Rat P.O. (2 mpk) % F): 59%
- AUC(0-inf) ([2]; po, 2 mg/kg, P.O., 2 mpk, read-out: Rat P.O. (2 mpk) AUC0-inf): 2810 ng·h/mL
- AUC(0-t) ([2]; po, 2 mg/kg, P.O., 2 mpk, read-out: Rat P.O. (2 mpk) AUC0-t): 2800 ng·h/mL
- half-life ([2]; po, 2 mpk, P.O., read-out: Rat P.O. T1/2 (converted)): 2 h
- Human Liver Microsome (Human Liver Microsome): 17 µL/min/mg
- AUC at ED50 ([3]; Table 6, HCl salt Run #3): 338 ng·h/mL
- average AUC at the ED50 ([3]; average of HCl salt studies of Tables 4 and 6 and free base study of Table 3): 313 ng·h/mL
- AUC ([3]; 0.03 mg/kg, 0.03 mg/kg daily): 109 ng·h/mL
- AUC ([3]; 0.1 mg/kg, 0.1 mg/kg daily): 203 ng·h/mL
- AUC ([3]; 0.3 mg/kg, 0.3 mg/kg daily): 730 ng·h/mL
- AUC ([3]; 1 mg/kg, 1.0 mg/kg daily): 2370 ng·h/mL
- turnover in liver microsomes (liver microsomes): Substantial turnover
Structure (SMILES): COc1cc2nccc(Oc3ccc4c(c3)OCCN4C(=O)Nc3cc(C)on3)c2cc1OC [Compound A, 7-((6,7-bis(methyloxy)-4-quinolinyl)oxy)-N-(5-methyl-3-isoxazolyl)-2,3-dihydro-4H-1,4-benzoxazine-4-carboxamide]
- ED50 ([1]; Rattus norvegicus, Table 3, free base, number of vessels, read-out: ED50): 0.16 mg/kg
- ED50 ([1]; Rattus norvegicus, Table 6, HCl salt Run #3, number of vessels, read-out: ED50): 0.14 mg/kg
- Average # of Vessels ([1]; Table 3, free base, VEGF disc + 0.03 mg/kg daily): 24.5
- Average # of Vessels ([1]; Table 3, free base, VEGF disc + 0.1 mg/kg daily): 24.9
- Average # of Vessels ([1]; Table 3, free base, VEGF disc + 0.3 mg/kg daily): 5.4
- Average # of Vessels ([1]; Table 3, free base, VEGF disc + 1.0 mg/kg daily): 2.3
- ED50 ([1]; free base, review of Tables 2 and 3): 0.16 mpk
- IC50 (HUVEC): 2 nM
